Test results as given in PMC8037310, “Thrombin-Derived Peptides Potentiate the Activity of Gram-Positive-Specific Antibiotics against Gram-Negative Bacteria” (Molecules, 2021).
Where “and” joins values, the source holds several entries; their conditions need not be identical. Equal values may be shown once. Read-outs that look alike come from different tables or passages of the source. Peptide text beside a SMILES is read from it.

What was measured:
K. pneumoniae ATCC13883 = experiment: Checkerboard assay with rifampicin; assay type: cell-based, Klebsiella pneumoniae; conditions: K. pneumoniae ATCC13883; for MICpeptide: peptide alone; for MSCpeptide: peptide concentration in the combination with rifampicin giving the lowest FICi; for MSCrif: rifampicin concentration in the combination giving the lowest FICi
Description: (§1) All peptides were screened for antimicrobial activity against E. coli BW25113, E. coli ATCC25922, and E. coli W3110. A select group of the peptides was further tested against E. coli mcr-1, E. coli EQASmcr-1 (EQAS 2016 412016126), E. coli EQASmcr-2 (EQAS 2016 KP37), E. coli EQASmcr-3 (EQAS 2017 2013-SQ352), K. pneumoniae ATCC13883, P. aeruginosa ATCC27853, and A. baumannii ATCC17978. The antimicrobial assay was performed according to CLSI guidelines. Bacteria were plated out directly from their glycerol stocks on blood agar plates, incubated overnight at 37 °C, and then kept in the fridge. The blood agar plates were only used for 2 weeks and then replaced.
(§2) One colony from a blood agar plates was inoculated in Lysogeny Broth (LB) at 37 °C until a 0.5 optical density at 600 nm (OD600) was reached (compared to the sterility control of LB). The bacterial suspension was diluted in fresh LB to 2.0 × 10^6 CFU/mL. The serial dilutions were prepared in polypropylene microtiter plates: a stock of the test compounds was prepared with a 2x final concentration in LB. Moreover, 100 µL of the stock was added to the wells of the top row of which 50 µL was used for the serial dilution. The bottom row of each plate was used as the positive (50 µL of LB) and negative controls (100 µL of LB) (6 wells each). Furthermore, 50 µL of the 2.0 × 10^6 CFU/mL bacterial stock was added to each well except for the negative controls, adding up to a total volume of 100 µL per well. The plates were sealed with a breathable seal and incubated for 20 h at 37 °C and 600 rpm.
(§3) Two 96-well plates were required per compound. A serial dilution of the compound was performed on two plates from row A–G using with LB as medium. Row H was filled with 25 µL medium. On a separate plate a negative control (8 wells, 100 μL medium) was prepared. For all concentrations of antibiotic a specific stock was prepared. 25 µL medium was added to the 0 µg/mL antibiotic columns (plate I, column 1–3). Of each antibiotic stock 25 µL was added to three columns to obtain triplicates for every condition. Both plates contained 50 µL in each well to which 50 µL bacterial stock was added (see the protocol of the MIC assays) and the plates were sealed. After incubation for 20 h at 37 °C while shaking, the breathable seals were removed and the density of the bacterial suspensions measured at 600 nm (OD600) using a Tecan Spark plate reader. The OD600 values were transformed to a 2D gradient with the negative control as minimum and the positive control (wells G1, G2, and G3) as maximum in excel. The FICi was calculated using Equation (1) with a FICi ≤ 0.5 indicating synergy. FICi = (MSCa/MICa) + (MSCb/MICb),(1)
(§4) Calculation of the FICi: MSCa = concentration of the […] in combination with the antibiotic that results in the lowest FICi. MICa = MIC of the antibiotic without synergist (row G). MSCb = concentration of the synergist in combination with the antibiotic that results in the lowest FICi. MICb = MIC of the synergist itself (Column 1–3, plate I).

P. aeruginosa ATCC27853 = experiment: Checkerboard assay with rifampicin; assay type: cell-based, Pseudomonas aeruginosa; conditions: for MICpeptide: peptide alone; for MICpeptide / MSCpeptide / MSCrif: P. aeruginosa ATCC27853; for MSCpeptide: peptide concentration in the combination with rifampicin giving the lowest FICi; for MSCrif: rifampicin concentration in the combination giving the lowest FICi; for FICi: with rifampicin vs P. aeruginosa ATCC27853, synergy defined as FICi ≤ 0.5
Description: as §1, §2, §3, §4

E. coli BW25113 [1] = experiment: microbe, parasite or virus in culture; assay type: cell-based, Escherichia coli; conditions: for MSCnovo: novobiocin concentration in the combination giving the lowest FICi; for MSCnovo / MSCpeptide: E. coli BW25113; for MICpeptide: synergist alone, E. coli BW25113, from checkerboard with novobiocin; for MSCpeptide: synergist concentration in the combination with novobiocin giving the lowest FICi
Description: as §1, §2, §3, §4

E. coli BW25113 [2] = experiment: Checkerboard assay with erythromycin; assay type: cell-based, Escherichia coli; conditions: for MSCery: erythromycin concentration in the combination with the synergist giving the lowest FICi, E. coli BW25113; for MIC of the peptide (MICpep): synergist alone, from checkerboard with erythromycin; for MIC of the peptide (MICpep) / MSCpeptide, minimum synergistic concentration: E. coli BW25113, LB, 20 h 37 °C; for MSCpeptide, minimum synergistic concentration: synergist concentration in the combination with erythromycin giving the lowest FICi, OD600
E. coli ATCC25922 = assay type: cell-based, Escherichia coli; conditions: for FICi: ATCC25922, 20 h; for MICpeptide: peptide alone; for MICpeptide / MSCpeptide / MSCrif: E. coli ATCC25922; for MSCpeptide: peptide concentration in the combination with rifampicin giving the lowest FICi; for MSCrif: rifampicin concentration in the combination giving the lowest FICi
Outline: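 Checkerboard of peptide serial dilutions against rifampicin concentrations in triplicate, in LB with 1.0 × 10^6 CFU/mL final inoculum after mixing the 2.0 × 10^6 CFU/mL stock 1:1, 20 h at 37 °C shaking. OD600 read; FICi = MSCa/MICa + MSCb/MICb, ≤0.5 taken as synergy.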

[3] = tested on: E. coli EQASmcr-1 (EQAS 2016 412016126); assay type: cell-based, Escherichia coli; conditions: for MICpeptide: peptide alone; for MICpeptide / MSCpeptide / MSCrif: E. coli EQASmcr-1; for MSCpeptide: peptide concentration in the combination with rifampicin giving the lowest FICi; for MSCrif: rifampicin concentration in the combination giving the lowest FICi
E. coli W3110 = assay type: cell-based, Escherichia coli; conditions: for MICpeptide: peptide alone; for MICpeptide / MSCpeptide / MSCrif: E. coli W3110; for MSCpeptide: peptide concentration in the combination with rifampicin giving the lowest FICi; for MSCrif: rifampicin concentration in the combination giving the lowest FICi
E. coli BW25113 [4] = experiment: microbe, parasite or virus in culture; assay type: cell-based, Escherichia coli; conditions: for FICi: BW25113, 20 h; for MICpeptide: synergist alone, E. coli BW25113, from checkerboard with vancomycin; for MSCpeptide: synergist concentration in the combination with vancomycin giving the lowest FICi; for MSCpeptide / MSCvanco: E. coli BW25113; for MSCvanco: vancomycin concentration in the combination giving the lowest FICi
Description: as §1, §2, §3, §4

[5] = tested on: defibrinated sheep blood (red blood cells); experiment: Hemolysis assay; assay type: cell-based; conditions: 200 µg/mL compound, 20 h incubation at 37 °C with defibrinated sheep blood, PBS 0.002% Tween20, absorbance 415 nm, relative to 0.1% Triton X-100; n=3 technical replicates
Outline: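 % hemolysis is supernatant absorbance at 415 nm, minus the buffer-only background, relative to 0.1% Triton X-100 lysis. Compound dilutions (200–1.56 µg/mL before adding cells) were incubated with an equal volume of red cells for 20 h at 37 °C and 500 rpm. Cells were washed and normalized in PBS/0.002% Tween20 to about 2.5 A415 at full lysis.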

A. baumannii ATCC17978 = experiment: microbe, parasite or virus in culture; assay type: cell-based, Acinetobacter baumannii; conditions: for MICpeptide: peptide alone; for MICpeptide / MSCpeptide / MSCrif: A. baumannii ATCC17978; for MSCpeptide: peptide concentration in the combination with rifampicin giving the lowest FICi; for MSCrif: rifampicin concentration in the combination giving the lowest FICi
Description: as §1, §2, §3, §4

[6] = EQASmcr-1 (EQAS 2016 412016126, 20 h)
[7] = with rifampicin vs E. coli W3110, synergy defined as FICi ≤ 0.5
[8] = with rifampicin vs A. baumannii ATCC17978

SMILES | MICpeptide (K. pneumoniae ATCC13883) [µg/mL] | MSCpeptide (K. pneumoniae ATCC13883) [µg/mL] | MSCrif (K. pneumoniae ATCC13883) [µg/mL] | MICpeptide (P. aeruginosa ATCC27853) [µg/mL] | MSCpeptide (P. aeruginosa ATCC27853) [µg/mL] | MSCrif (P. aeruginosa ATCC27853) [µg/mL] | MSCnovo (E. coli BW25113 [1]) [µg/mL] | MICpeptide (E. coli BW25113 [1]) [µg/mL] | MSCpeptide (E. coli BW25113 [1]) [µg/mL] | MSCery (E. coli BW25113 [2]) [µg/mL] | MIC of the peptide (MICpep) (E. coli BW25113 [2]) [µg/mL] | MSCpeptide, minimum synergistic concentration (E. coli BW25113 [2]) | FICi (E. coli ATCC25922) | MICpeptide (E. coli ATCC25922) [µg/mL] | MSCpeptide (E. coli ATCC25922) [µg/mL] | MSCrif (E. coli ATCC25922) [µg/mL] | MICpeptide [3] [µg/mL] | MSCpeptide [3] [µg/mL] | MSCrif [3] [µg/mL] | MICpeptide (E. coli W3110) [µg/mL] | other results
CC[C@H](C)[C@H](NC(=O)[C@@H](NC(=O)[C@H](CCCCN)NC(=O)[C@H](CCC(N)=O)NC(=O)[C@@H](NC(=O)[C@H](C)NC(=O)[C@H](CCCCN)NC(=O)[C@H](CCCCN)NC(=O)[C@H](CC(C)C)NC(=O)[C@H](CCCNC(=N)N)NC(=O)[C@H](Cc1ccccc1)NC(=O)[C@@H](N)C(C)C)[C@@H](C)CC)C(C)C)C(N)=O [peptide 14] (H-VFRLKKAIQKVI-NH2) | > 200 | 6.25 | 0.25 | > 200 | 50 | 0.5 | 6.25 | > 200 | 6.25 | 12.5 | > 200 | 6.25 µg/mL | 0.0313 | > 200 | 6.25 | 0.063 | > 200 | 12.5 | 0.5 | > 200 | FICi (E. coli BW25113 [1]; BW25113, 20 h): 0.0313; FICi [3, 6]: 0.0938; FICi (E. coli W3110; W3110, 20 h): 0.1875; MSCpeptide (E. coli W3110): 50 µg/mL; MSCrif (E. coli W3110): 0.5 µg/mL; FICi (E. coli BW25113 [4]): 0.2500; MICpeptide (E. coli BW25113 [4]): > 200 µg/mL; MSCpeptide (E. coli BW25113 [4]): 50 µg/mL; MSCvanco (E. coli BW25113 [4]): 50 µg/mL; Hemolysis [5]: 0.9% and 1%; FICi (A. baumannii ATCC17978; ATCC17978, 20 h): 0.0781; MICpeptide (A. baumannii ATCC17978): > 200 µg/mL; MSCpeptide (A. baumannii ATCC17978): 6.25 µg/mL; MSCrif (A. baumannii ATCC17978): 0.125 µg/mL
CC[C@H](C)[C@H](NC(=O)[C@@H](NC(=O)[C@H](CCCCN)NC(=O)[C@H](CCC(N)=O)NC(=O)[C@@H](NC(=O)[C@H](Cc1c[nH]c2ccccc12)NC(=O)[C@H](CCCCN)NC(=O)[C@H](CCCCN)NC(=O)[C@H](CC(C)C)NC(=O)[C@H](CCCNC(=N)N)NC(=O)[C@H](Cc1ccccc1)NC(=O)[C@@H](N)C(C)C)[C@@H](C)CC)C(C)C)C(N)=O [peptide 6] (H-VFRLKKWIQKVI-NH2) | 100 | 3.125 | 1 | 50 | 25 | 1 | 25 | 12.5 | 1.563 | 12.5 | 12.5 | 3.125 µg/mL and 3.13 µg/mL | 0.0469 | 200 | 6.25 | 0.063 | 100 | 6.25 | 0.125 | 6.25 | FICi (P. aeruginosa ATCC27853): > 0.5; FICi (E. coli BW25113 [1]; BW25113, 20 h): 0.1875; FICi [3, 6]: 0.0781; MSCpeptide (E. coli W3110): 3.125 µg/mL; MSCrif (E. coli W3110): 0.125 µg/mL; FICi (E. coli W3110; [7]): > 0.5; MICpeptide (E. coli BW25113 [4]): 25 µg/mL; MSCpeptide (E. coli BW25113 [4]): 3.125 µg/mL; MSCvanco (E. coli BW25113 [4]): 25 µg/mL; Hemolysis [5]: 4.0%; MICpeptide (A. baumannii ATCC17978): 50 µg/mL; MSCpeptide (A. baumannii ATCC17978): 3.125 µg/mL; MSCrif (A. baumannii ATCC17978): 0.125 µg/mL; FICi (A. baumannii ATCC17978; [8]): 0.1250
CC[C@H](C)[C@H](NC(=O)[C@@H](NC(=O)[C@H](CCCCN)NC(=O)[C@H](CCC(N)=O)NC(=O)[C@@H](NC(=O)[C@H](Cc1c[nH]c2ccccc12)NC(=O)[C@H](CCCCN)NC(=O)[C@H](CCCCN)NC(=O)[C@H](CC(C)C)NC(=O)[C@H](C)NC(=O)[C@H](Cc1ccccc1)NC(=O)[C@@H](N)C(C)C)[C@@H](C)CC)C(C)C)C(N)=O [peptide 10] (H-VFALKKWIQKVI-NH2) | > 200 | 12.5 | 1 | > 200 | 100 | 4 | 6.25 | 100 | 6.25 | 3.125 | 100 | 12.5 µg/mL | 0.0313 | > 200 | 6.25 | 0.063 | 200 | 12.5 | 0.125 | 25 | FICi (P. aeruginosa ATCC27853): 0.2500; FICi (E. coli BW25113 [1]; with novobiocin vs E. coli BW25113): 0.0781; FICi ([3]; with rifampicin vs E. coli EQASmcr-1): 0.0781; MSCpeptide (E. coli W3110): 12.5 µg/mL; MSCrif (E. coli W3110): 0.125 µg/mL; FICi (E. coli W3110; [7]): > 0.5; FICi (E. coli BW25113 [4]): 0.1563; MICpeptide (E. coli BW25113 [4]): 100 µg/mL; MSCpeptide (E. coli BW25113 [4]): 12.5 µg/mL; MSCvanco (E. coli BW25113 [4]): 12.5 µg/mL; Hemolysis [5]: 3.8% and 4%; MICpeptide (A. baumannii ATCC17978): 50 µg/mL; MSCpeptide (A. baumannii ATCC17978): 3.125 µg/mL; MSCrif (A. baumannii ATCC17978): 0.125 µg/mL; FICi (A. baumannii ATCC17978; [8]): 0.1250
